{"source": "patent US20080274149A1", "about": "“Encapsulation and Controlled Release of Biologically Active Ingredients with Enzymatically Degradable Microparticulate, Hyperbranched Polymers” (priority 2005, published 2008)", "test": "Stability in formulation: creatine in oil-in-water emulsion stored at 45° C.", "format": "physicochemical", "description": "1.5% of the microcapsules from Example 4 were stirred into an oil-in-water emulsion and stored at T=45° C."}
{"smiles": "CN(CC(=O)O)C(=N)N", "note": "[Free creatine, creatine]", "values": [{"measurement": "creatine [%]", "setting": "0 weeks", "result": 100, "unit": "%"}, {"measurement": "creatine [%]", "setting": "stored at T=45° C., 5 weeks", "result": 40, "unit": "%"}]}
